Experimental data taken from patent publication US20140081017A1, “Histone Deacetylase Inhibitors for Enhancing Activity of Antifungal Agents” (METHYLGENE INC., priority 2012, published 2014).
≈ marks a conversion by molar mass, not a printed value. Read-outs that look alike come from different tables or passages of the source.

Assays:
Candida albicans = assay: Minimal Inhibitory Concentration (MIC) assay, broth microdilution per CLSI; format: cell-based; conditions: Candida albicans, read-out: Minimum Inhibitory Concentrations against Yeast Isolates, Candida albicans;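 also: two read times 24 hr and 48 hr of incubation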
How it was run: (§1)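 Yeast isolates were grown overnight at 35° C on Sabouraud dextrose agar, adjusted to 0.5 McFarland in saline and diluted 1:100 in RPMI buffered with 0.165 M MOPS, pH 7.0. Compounds in DMSO were serially diluted 1:1. After 24-48 hr at 35° C, MIC was the lowest concentration inhibiting visible growth.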

Candida glabrata = assay: as above; format: cell-based; conditions: Nakaseomyces glabratus, read-out: Minimum Inhibitory Concentrations against Yeast Isolates, Candida glabrata;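 also: two read times 24 hr and 48 hr of incubation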
How it was run: as §1

Candida parapsilosis = assay: as above; format: cell-based; conditions: Lodderomyces parapsilosis, read-out: Minimum Inhibitory Concentrations against Yeast Isolates, Candida parapsilosis;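 also: two read times 24 hr and 48 hr of incubation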
How it was run: as §1

C. glabrata = assay: Checkerboard FIC assay in combination with fluconazole (MIC alone and in combination, FICI); format: cell-based, Candida glabrata; conditions: for FICI of combination resulting in fluconazole MIC of: 2 ug/mL / FICI of combination resulting in fluconazole MIC of: 4 ug/mL / FICI of combination resulting in fluconazole MIC of: 8 ug/mL: FICI calculated using a fluconazole MIC of 16 μg/mL; for FICI of combination resulting in fluconazole MIC of: 2 ug/mL (value in parenthesis) / FICI of combination resulting in fluconazole MIC of: 4 ug/mL (value in parenthesis) / FICI of combination resulting in fluconazole MIC of: 8 ug/mL (value in parenthesis): FICI using a fluconazole MIC of 128 μg/mL; for MIC: Nakaseomyces glabratus; for Multiple of compound MIC to synergize fluconazole MIC to 2 ug/mL / Multiple of compound MIC to synergize fluconazole MIC to 4 ug/mL / Multiple of compound MIC to synergize fluconazole MIC to 8 ug/mL: concentration in combination as multiple of the compound's MIC alone; for Multiple of compound MIC to synergize fluconazole MIC to 2 ug/mL: fluconazole MIC 2 ug/mL; for Multiple of compound MIC to synergize fluconazole MIC to 4 ug/mL: fluconazole MIC 4 ug/mL; for Multiple of compound MIC to synergize fluconazole MIC to 8 ug/mL: fluconazole MIC 8 ug/mL; for Concentration of Methylgene compound to synergize fluconazole MIC to 2 ug/mL / Concentration of Methylgene compound to synergize fluconazole MIC to 4 ug/mL / Concentration of Methylgene compound to synergize fluconazole MIC to 8 ug/mL: in combination with fluconazole; for Concentration of Methylgene compound to synergize fluconazole MIC to 2 ug/mL: fluconazole MIC lowered to 2 ug/mL; for Concentration of Methylgene compound to synergize fluconazole MIC to 4 ug/mL: fluconazole MIC lowered to 4 ug/mL; for Concentration of Methylgene compound to synergize fluconazole MIC to 8 ug/mL: fluconazole MIC lowered to 8 ug/mL
How it was run: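 A fluconazole synergy checkerboard was run against C. glabrata in MOPS-buffered RPMI (pH 7.0) for about 48 h at 35 °C. Each agent was diluted 2-fold, with one row and one column holding each agent alone for MIC determination. FICI was calculated from these MICs, using a 0.5 McFarland inoculum diluted 1:100 per CLSI.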

[1] = 24 hr reading (first value of cell 24 hr/48 hr)
[2] = 48 hr reading (second value of cell 24 hr/48 hr)
[3] = MIC of the example compound alone against C. glabrata in the checkerboard assay, approximately 48 hr, read-out: Methylgene MIC
[4] = test compound alone, C. glabrata, approx. 48 hr at 35° C., read-out: Compound MIC

MIC (Candida albicans; [1])	MIC (Candida albicans; [2])	MIC (Candida glabrata; [1])	MIC (Candida glabrata; [2])	MIC (Candida parapsilosis; [1])	MIC (Candida parapsilosis; [2])	FICI of combination resulting in fluconazole MIC of: 2 ug/mL (C. glabrata; C. glabrata)	FICI of combination resulting in fluconazole MIC of: 4 ug/mL (C. glabrata; C. glabrata)	FICI of combination resulting in fluconazole MIC of: 8 ug/mL (C. glabrata; C. glabrata)	FICI of combination resulting in fluconazole MIC of: 2 ug/mL (value in parenthesis) (C. glabrata; C. glabrata)	FICI of combination resulting in fluconazole MIC of: 4 ug/mL (value in parenthesis) (C. glabrata; C. glabrata)	FICI of combination resulting in fluconazole MIC of: 8 ug/mL (value in parenthesis) (C. glabrata; C. glabrata)	MIC (C. glabrata; [3])	MIC (C. glabrata; [4])	Multiple of compound MIC to synergize fluconazole MIC to 2 ug/mL (C. glabrata)	Multiple of compound MIC to synergize fluconazole MIC to 4 ug/mL (C. glabrata)	Multiple of compound MIC to synergize fluconazole MIC to 8 ug/mL (C. glabrata)	Concentration of Methylgene compound to synergize fluconazole MIC to 2 ug/mL (C. glabrata; C. glabrata)	Concentration of Methylgene compound to synergize fluconazole MIC to 4 ug/mL (C. glabrata; C. glabrata)	Concentration of Methylgene compound to synergize fluconazole MIC to 8 ug/mL (C. glabrata; C. glabrata)	SMILES
> 32 µg/mL	> 32 µg/mL	4 µg/mL (≈ 8.8 µM)	16 µg/mL (≈ 35.2 µM)	> 32 µg/mL	> 32 µg/mL	0.563	0.375	0.500	0.516	0.281	0.313	16 µg/mL	16 µg/mL	(½x)	(¼x)	(¼x)	8 µg/mL	4 µg/mL	4 µg/mL	O=C(Cc1ccc(CCCCc2ccc(NC(=O)NCCN3CCOCC3)cc2)cc1)NO [Example 47, N-hydroxy-2-(4-(4-(4-(3-(2-morpholinoethyl)ureido)phenyl)butyl)phenyl)acetamide]
> 4 µg/mL	> 4 µg/mL	> 4 µg/mL	> 4 µg/mL	> 4 µg/mL	> 4 µg/mL	0.188	0.188	0.313	0.141	0.094	0.125	> 4 µg/mL	> 4 µg/mL				1 µg/mL	0.5 µg/mL	0.5 µg/mL	COC(=O)Nc1ccc(CCCCc2ccc(CC(=O)NO)cc2)cc1 [Example 48, methyl 4-(4-(4-(2-(hydroxyamino)-2-oxoethyl)phenyl)butyl) phenylcarbamate]
> 64 µg/mL	> 64 µg/mL	16 µg/mL (≈ 34.2 µM)	> 64 µg/mL	> 64 µg/mL	> 64 µg/mL	0.188	0.250	0.313	0.141	0.156	0.125	> 16 µg/mL	> 16 µg/mL				4 µg/mL	4 µg/mL	2 µg/mL	CN1CCN(CCNC(=O)Nc2cccc(CCCCc3ccc(CC(=O)NO)cc3)c2)CC1 [Example 49, N-hydroxy-2-(4-(4-(3-(3-(2-(4-methylpiperazin-1-yl)ethyl)ureido)phenyl)butyl)phenyl)acetamide]
> 64 µg/mL	> 64 µg/mL	8 µg/mL (≈ 17.6 µM)	16 µg/mL (≈ 35.2 µM)	> 64 µg/mL	> 64 µg/mL	0.313	0.250	0.375	0.266	0.156	0.188	16 µg/mL	16 µg/mL	(¼x)	(⅛x)	(⅛x)	4 µg/mL	2 µg/mL	2 µg/mL	O=C(Cc1ccc(CCCCc2cccc(NC(=O)NCCN3CCOCC3)c2)cc1)NO [Example 50, N-hydroxy-2-(4-(4-(3-(3-(2-morpholinoethyl)urei-do)phenyl)butyl)phenyl)acetamide]
> 64 µg/mL	> 64 µg/mL	4 µg/mL (≈ 8.41 µM)	16 µg/mL (≈ 33.6 µM)	> 64 µg/mL	> 64 µg/mL	0.313	0.250	0.375	0.266	0.156	0.188	16 µg/mL	16 µg/mL	(¼x)	(⅛x)	(⅛x)	4 µg/mL	2 µg/mL	2 µg/mL	O=C(Cc1ccc(CCCCc2ccc(NS(=O)(=O)CCN3CCOCC3)cc2)cc1)NO [Example 51, N-hydroxy-2-(4-(4-(4-(2-morpholinoethylsulfona-mido)phenyl)butyl)phenyl)acetamide]
> 64 µg/mL	> 64 µg/mL	8 µg/mL (≈ 16.4 µM)	> 64 µg/mL	> 64 µg/mL	> 64 µg/mL	> 0.563	> 0.625	> 0.500	> 0.516	> 0.531	> 0.313	> 16 µg/mL	> 16 µg/mL				16 µg/mL	16 µg/mL	8 µg/mL	CN1CCN(CCS(=O)(=O)Nc2ccc(CCCCc3ccc(CC(=O)NO)cc3)cc2)CC1 [Example 52, N-hydroxy-2-(4-(4-(4-(2-(4-methylpiperazin-1-yl)ethylsulfonamido)phenyl)butyl)phenyl)acetamide]
> 64 µg/mL	> 64 µg/mL	16 µg/mL (≈ 33.6 µM)	32 µg/mL (≈ 67.3 µM)	> 64 µg/mL	> 64 µg/mL	0.313	0.250	0.375	0.266	0.156	0.188	16 µg/mL	16 µg/mL	(¼x)	(⅛x)	(⅛x)	4 µg/mL	2 µg/mL	2 µg/mL	O=C(Cc1ccc(CCCCc2cccc(NS(=O)(=O)CCN3CCOCC3)c2)cc1)NO [Example 53, N-hydroxy-2-(4-(4-(3-(2-morpholinoethylsulfona-mido)phenyl)butyl)phenyl)acetamide]
